Test results taken from PMC5829263, “Homoarginine and inhibition of human arginase activity: kinetic characterization and biological relevance” (Scientific Reports, 2018).
Where “and” joins values, the source holds several entries; their conditions need not be identical. Equal entries are not always repeated. Entries after “also recorded” stand apart in the source; their conditions may differ.

What was measured:
[1] = molecular target: T1, recombinant human arginase 1 (Homo sapiens, UniProt P05089); assay: Arginase 1 inhibition, UPLC-MS measurement of ARG to ORN conversion in HEK293T cell lysate; details: for % of control activity at the corresponding [Inhibitor] ± SE: mean of two experiments;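 on all read-outs here: arginase 1–expressing HEK293T lysate at 0.05 mg/mL in pH 7.4 phosphate buffer, inhibitor preincubated 5 min with enzyme, then reaction started by adding ARG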
T1 sequence (P05089 1-322): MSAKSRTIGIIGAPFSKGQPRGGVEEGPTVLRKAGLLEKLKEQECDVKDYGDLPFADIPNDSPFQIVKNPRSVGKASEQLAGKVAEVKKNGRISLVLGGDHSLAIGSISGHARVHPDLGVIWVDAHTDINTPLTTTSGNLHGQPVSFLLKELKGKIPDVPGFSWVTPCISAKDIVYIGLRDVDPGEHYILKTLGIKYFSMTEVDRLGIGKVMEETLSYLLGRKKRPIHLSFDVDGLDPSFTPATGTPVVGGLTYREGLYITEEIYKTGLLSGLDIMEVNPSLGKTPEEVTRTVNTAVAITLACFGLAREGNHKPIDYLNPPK
Experimental: (§1) Following a 5-min pre-equilibration period reactions were initiated by the addition of the cell lysate solution in 0.05 M phosphate buffer to a pre-equilibrated aqueous solution of the substrate (ARG).
(§2) The samples were vortex mixed (20 sec) and cooled in an ice/water bath for 10 min prior to centrifugation (5 min, 18,000 × g, room temperature) to precipitate the proteins. An aliquot of the supernatant layer was diluted with a 7:3 mobile phase A/mobile phase B solution into glass UPLC vial inserts.
(§3) Incubation mixtures comprised of HEK293T cell lysate expressing arginase 1 (0.05 mg/mL) or arginase 2 (0.1 mg/mL), phosphate buffer (0.05 M, pH 7.4), inhibitor (0, 0.1, 1, 10, 100, 1000 or 10000 μM) and ARG (0.1, 2 or 3 mM). Following a 5-min pre-incubation of the potential inhibitor with arginase 1 or arginase 2, reactions were initiated by the addition of a pre-equilibrated solution of the substrate ARG.
Ki values were derived from fitting the competitive inhibition equation to experimental data. Ki data are the mean of three singlicate experiments.

arginase 1 [2] = assay: HOMOARG as a substrate for arginase 1, formation of LYS by UPLC-MS; assay type: biochemical, human; details: LYS limit of detection 0.3 µM
arginase 1 [3] = details: arginase 1 inhibition; ref Ikemoto et al. 12; cited from earlier work
arginase 2 [4] = details: arginase 2 inhibition; ref Colleluori and Ash 17; cited from earlier work
arginase 2 [5] = assay: HOMOARG as a substrate for arginase 2, formation of LYS by UPLC-MS; assay type: biochemical, human; details: LYS limit of detection 0.3 µM
[6] = molecular target: T2, recombinant human arginase 2 (Homo sapiens, UniProt P78540); assay: Arginase 2 inhibition, UPLC-MS measurement of ARG to ORN conversion in HEK293T cell lysate; details: for % of control activity at the corresponding [Inhibitor] ± SE: mean of two experiments;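 on all read-outs here: HEK293T lysate carrying arginase 2 at 0.1 mg/mL in 0.05 M phosphate buffer pH 7.4, inhibitor preincubated with enzyme 5 min before ARG addition started the reaction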
T2 sequence (P78540 23-354): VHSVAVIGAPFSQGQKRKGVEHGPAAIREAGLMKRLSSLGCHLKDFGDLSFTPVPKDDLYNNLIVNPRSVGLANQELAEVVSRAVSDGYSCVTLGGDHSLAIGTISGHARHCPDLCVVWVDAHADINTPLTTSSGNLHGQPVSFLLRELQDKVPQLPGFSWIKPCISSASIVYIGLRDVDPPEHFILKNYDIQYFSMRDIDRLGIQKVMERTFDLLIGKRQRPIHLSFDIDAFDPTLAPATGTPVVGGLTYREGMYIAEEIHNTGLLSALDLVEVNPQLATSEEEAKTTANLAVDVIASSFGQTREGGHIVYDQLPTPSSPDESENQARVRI
Experimental: as §1, §2, §3
Sample were diluted 3:17 in mobile phase solution prior injection.

With `N=C(N)NCCCC[C@H](N)C(=O)O` [HOMOARG, homoarginine] the “inhibition of arginase 1 activity” value ([1]; ARG 100 µM (physiological), inhibitor 1 mM) was 30%, the “inhibition of arginase 1 activity” value ([1]; ARG 100 µM (physiological), inhibitor 10 mM) was 76% and the “inhibition of arginase 1 activity” value ([1]; ARG 3 mM (Km), inhibitor 1 mM) was 14%. For the same molecule, the “inhibition of arginase 1 activity” value ([1]; ARG 3 mM (Km), inhibitor 10 mM) was 50%, the “inhibitory effect on arginase 1 activity at physiological inhibitor concentrations” value ([1]; LYS 100–1000 µM, HOMOARG 1–10 µM) was “no significant inhibitory effects” and the “% of control activity at the corresponding [Inhibitor] ± SE” value (shortened to “% of control activity … [Inhibitor] ± SE”) ([1]; arginase 1, ARG 100 µM, inhibitor 1 µM) was 112 ± 4%. The “% of control activity … [Inhibitor] ± SE” value ([1]; arginase 1, ARG 100 µM, inhibitor 10 µM) was 107 ± 4%, the “% of control activity … [Inhibitor] ± SE” value ([1]; arginase 1, ARG 100 µM, inhibitor 100 µM) was 85 ± 1% and the “% of control activity … [Inhibitor] ± SE” value ([1]; arginase 1, ARG 100 µM, inhibitor 1,000 µM) was 70 ± 1%. The “% of control activity … [Inhibitor] ± SE” value ([1]; arginase 1, ARG 100 µM, inhibitor 10,000 µM) was 24 ± 8%, the “% of control activity … [Inhibitor] ± SE” value ([1]; arginase 1, ARG 3 mM, inhibitor 1 µM) was 106 ± 7% and the “% of control activity … [Inhibitor] ± SE” value ([1]; arginase 1, ARG 3 mM, inhibitor 10 µM) was 110 ± 1%. The “% of control activity … [Inhibitor] ± SE” value ([1]; arginase 1, ARG 3 mM, inhibitor 100 µM) was 96 ± 6%, the “% of control activity … [Inhibitor] ± SE” value ([1]; arginase 1, ARG 3 mM, inhibitor 1,000 µM) was 86 ± 13% and the “% of control activity … [Inhibitor] ± SE” value ([1]; arginase 1, ARG 3 mM, inhibitor 10,000 µM) was 50 ± 1%. For the same molecule, the “activity retained vs. control” value ([1]; arginase 1, physiological HOMOARG concentrations (1–10 µM)) was 90%, the “inhibition model fitting the data” value ([1]; arginase 1, poorly fit by uncompetitive, noncompetitive and mixed models) was “competitive” and the IC50 ([1]; read-out: IC50 ( ± SE), arginase 1, ARG 3 mM) was 8.14 ± 0.52 mM. The Ki ([1]; read-out: Ki ( ± SE), arginase 1, competitive inhibition model, ARG 0.6–15 mM) was 6.1 ± 0.5 mM, the “substrate activity, formation of LYS from HOMOARG” value (arginase 1 [2]) was “could not detect; also recorded: not a substrate” and the Ki (arginase 1 [3]) was 5 to 5.2 mM. For the same molecule, the Ki (arginase 2 [4]) was 39 mM, the “substrate activity, formation of LYS from HOMOARG” value (arginase 2 [5]) was “could not detect; also recorded: not a substrate” and the “inhibition of arginase 2” value ([6]; ARG 100 µM, inhibitor 1 mM) was 47%. The “inhibition of arginase 2” value ([6]; ARG 100 µM, inhibitor 10 mM) was 88%, the “% of control activity … [Inhibitor] ± SE” value ([6]; arginase 2, ARG 100 µM, inhibitor 1 µM) was 107 ± 2% and the “% of control activity … [Inhibitor] ± SE” value ([6]; arginase 2, ARG 100 µM, inhibitor 10 µM) was 105 ± 5%. The “% of control activity … [Inhibitor] ± SE” value ([6]; arginase 2, ARG 100 µM, inhibitor 100 µM) was 100 ± 5%, the “% of control activity … [Inhibitor] ± SE” value ([6]; arginase 2, ARG 100 µM, inhibitor 1,000 µM) was 53 ± 4% and the “% of control activity … [Inhibitor] ± SE” value ([6]; arginase 2, ARG 100 µM, inhibitor 10,000 µM) was 12 ± 5%. For the same molecule, the “% of control activity … [Inhibitor] ± SE” value ([6]; arginase 2, ARG 2 mM, inhibitor 1 µM) was 95 ± 3%, the “% of control activity … [Inhibitor] ± SE” value ([6]; arginase 2, ARG 2 mM, inhibitor 10 µM) was 106 ± 2% and the “% of control activity … [Inhibitor] ± SE” value ([6]; arginase 2, ARG 2 mM, inhibitor 100 µM) was 94 ± 2%. For the same molecule, the “% of control activity … [Inhibitor] ± SE” value ([6]; arginase 2, ARG 2 mM, inhibitor 1,000 µM) was 72 ± 1%, the “% of control activity … [Inhibitor] ± SE” value ([6]; arginase 2, ARG 2 mM, inhibitor 10,000 µM) was 15 ± 8% and the “activity retained vs. control” value ([6]; arginase 2, physiological HOMOARG concentrations (1–10 µM)) was 90%. For the same molecule, the “inhibition model fitting the data” value ([6]; arginase 2, poorly fit by uncompetitive, noncompetitive and mixed models) was “competitive”, the “inhibition of arginase 2 at physiological inhibitor concentrations” value ([6]; physiological LYS and HOMOARG concentrations) was “no significant inhibition” and the IC50 ([6]; read-out: IC50 ( ± SE), arginase 2, ARG 2 mM) was 2.5 mM and 2.52 mM. The Ki ([6]; read-out: Ki ( ± SE), arginase 2, competitive inhibition model, ARG 0.5–8 mM) was 1.7 mM and 1.73 mM.
